Results: patent US20060003948A1, “Compositions that include a triterpene and a carrier” (priority 2004, published 2006)

Tests used:
Pityrosporum ovale [1] = assay: Anti-Fungal Activity Against Pityrosporum ovale; format: cell-based; conditions: 4 mg/ml of test compound; 37° C. for 18 to 24 hours
Description: Betulin and its derivatives have low solubility in water, accordingly the stock solution of the test compounds were prepared in DMSO. The stock solutions for griseofulvin and nystatin were prepared in DMSO at a concentration of 10,000 μg/ml. The yeast Pityrosporum ovale (ATCC Rockville, Md.) was grown in Pityrosporum medium (ATCC Rockville, Md.) at 37° C. for 2-3 days. 5 ml of the medium was dispensed in 100×25 mm tubes and autoclaved at 121° C. for 15 minutes. To each tube at 45° C., 4 mg/ml of test compound was added and solidified in […], subsequently, each was inoculated with P. ovale and incubated at 37° C. for 18 to 24 hours.

T. tonsurans = assay: Agar Dilution Method 2, T. tonsurans; format: cell-based; conditions: 12th day of inoculation
Description: (§1) Sabourand Dextrose Agar was prepared according the manufacturers instructions and 5 ml was dispensed in 100×25 mm tubes and autoclaved for 121° C. for 15 minutes. To each tube containing 5 ml of liquid agar at 45° C., 4 mg/ml of test antifungal compound was added, subsequently each was solidified in […], and inoculated with fungal cultures. After incubation for 10-12 days at 25° C. to 28° C., the growth of the fungus was recorded every second day.

Microsporum canis = assay: Agar Dilution Method 1, Microsporum canis; format: cell-based; design: key: +++ = Maximum Fungal Growth; ++ = Moderate Fungal Growth; + = Minimum Fungal Growth; +/− = Very little Fungal Growth; − = No Fungal Growth
Description: as §1, with “100 X 25” for “100×25”, “different concentrations” for “4 mg/ml”, “compound in DMSO” for “compound”, “day. The Minimum Inhibitory Concentration (MIC) was determined by the tube containing the lowest concentration of test compound which inhibited fungal growth. See, Table 1.” for “day.”

Pityrosporum ovale [2] = assay: Agar Dilution Method 1, Pityrosporum ovale; format: cell-based; design: key: +++ = Maximum Fungal Growth; ++ = Moderate Fungal Growth; + = Minimum Fungal Growth; +/− = Very little Fungal Growth; − = No Fungal Growth
Description: as §1, with “100 X 25” for “100×25”, “different concentrations” for “4 mg/ml”, “compound in DMSO” for “compound”, “day. The Minimum Inhibitory Concentration (MIC) was determined by the tube containing the lowest concentration of test compound which inhibited fungal growth. See, Table 1.” for “day.”

M. canis = assay: Agar Dilution Method 2, M. canis; format: cell-based; conditions: 12th day of inoculation
Description: as §1

Epidermophyton = assay: Agar Dilution Method 1, Epidermophyton; format: cell-based; design: key: +++ = Maximum Fungal Growth; ++ = Moderate Fungal Growth; + = Minimum Fungal Growth; +/− = Very little Fungal Growth; − = No Fungal Growth
Description: as §1, with “100 X 25” for “100×25”, “different concentrations” for “4 mg/ml”, “compound in DMSO” for “compound”, “day. The Minimum Inhibitory Concentration (MIC) was determined by the tube containing the lowest concentration of test compound which inhibited fungal growth. See, Table 1.” for “day.”

M. audouinii = assay: Agar Dilution Method 2, M. audouinii; format: cell-based; conditions: 12th day of inoculation
Description: as §1

[3] = cited from earlier work

Compound	growth of P. ovale (Pityrosporum ovale [1])	Results using the Agar Dilution Method 2 in concentration, T. tonsurans (T. tonsurans) [µg/mL]	Results using the Agar Dilution Method 2 in concentration, M. canis (M. canis) [µg/mL]	Results using the Agar Dilution Method 2 in concentration, M. audouinii (M. audouinii) [µg/mL]	Fungal Growth Microsporum canis (Microsporum canis; 12.5 μg/ml in DMSO)	Fungal Growth Microsporum canis (Microsporum canis; 25 μg/ml in DMSO)	Fungal Growth Microsporum canis (Microsporum canis; 50 μg/ml in DMSO)	Fungal Growth Microsporum canis (Microsporum canis; 100 μg/ml in DMSO)	Fungal Growth Pityrosporum ovale (Pityrosporum ovale [2]; 12.5 μg/ml in DMSO)	Fungal Growth Pityrosporum ovale (Pityrosporum ovale [2]; 25 μg/ml in DMSO)	Fungal Growth Pityrosporum ovale (Pityrosporum ovale [2]; 50 μg/ml in DMSO)	Fungal Growth Pityrosporum ovale (Pityrosporum ovale [2]; 100 μg/ml in DMSO)	Fungal Growth Epidermophyton (Epidermophyton; 12.5 μg/ml in DMSO)	Fungal Growth Epidermophyton (Epidermophyton; 25 μg/ml in DMSO)	Fungal Growth Epidermophyton (Epidermophyton; 50 μg/ml in DMSO)	Fungal Growth Epidermophyton (Epidermophyton; 100 μg/ml in DMSO)	also measured
allobetulin L-valine ester	inhibited the growth																
C[C@@H]1[C@H](O)[C@@H](C)/C=C/C=C/CC/C=C/C=C/C=C/C=C/C(O[C@H]2O[C@H](C)[C@@H](O)[C@H](N)[C@@H]2O)CC2O[C@](O)(CC(O)C(O)CCC(O)CC(O)CC(O)CC(=O)O[C@H]1C)CC(O)C2C(=O)O (stereo partly shown) [Nystatin, reference compound]	inhibited	250	250	<125													Fungal Growth Microsporum canis (Microsporum canis; 125 μg/ml in DMSO): +; Fungal Growth Microsporum canis (Microsporum canis; 250 μg/ml in DMSO): +/−; Fungal Growth Microsporum canis (Microsporum canis; 500 μg/ml in DMSO): −; Fungal Growth Microsporum canis (Microsporum canis; 1000 μg/ml in DMSO): −; Fungal Growth Pityrosporum ovale (Pityrosporum ovale [2]; 125 μg/ml in DMSO): +; Fungal Growth Pityrosporum ovale (Pityrosporum ovale [2]; 250 μg/ml in DMSO): +/−; Fungal Growth Pityrosporum ovale (Pityrosporum ovale [2]; 500 μg/ml in DMSO): −; Fungal Growth Pityrosporum ovale (Pityrosporum ovale [2]; 1000 μg/ml in DMSO): −; Fungal Growth Epidermophyton (Epidermophyton; 125 μg/ml in DMSO): +/−; Fungal Growth Epidermophyton (Epidermophyton; 250 μg/ml in DMSO): −; Fungal Growth Epidermophyton (Epidermophyton; 500 μg/ml in DMSO): −; Fungal Growth Epidermophyton (Epidermophyton; 1000 μg/ml in DMSO): −
C=C(C)[C@@H]1CC[C@]2(COC(=O)CCCC(=O)O)CC[C@]3(C)[C@H](CC[C@@H]4[C@@]5(C)CC[C@H](OC(=O)CCCC(=O)O)C(C)(C)[C@@H]5CC[C@]43C)[C@@H]12 [betulin 3,28-diglutarate]	inhibited the growth																
COC1=CC(=O)C[C@@H](C)[C@]12Oc1c(Cl)c(OC)cc(OC)c1C2=O [Griseofulvin, reference compound]		250	250	<125													Fungal Growth Microsporum canis (Microsporum canis; 125 μg/ml in DMSO): +/−; Fungal Growth Microsporum canis (Microsporum canis; 250 μg/ml in DMSO): +/−; Fungal Growth Microsporum canis (Microsporum canis; 500 μg/ml in DMSO): −; Fungal Growth Microsporum canis (Microsporum canis; 1000 μg/ml in DMSO): −; Fungal Growth Pityrosporum ovale (Pityrosporum ovale [2]; 125 μg/ml in DMSO): +++; Fungal Growth Pityrosporum ovale (Pityrosporum ovale [2]; 250 μg/ml in DMSO): +++; Fungal Growth Pityrosporum ovale (Pityrosporum ovale [2]; 500 μg/ml in DMSO): ++; Fungal Growth Pityrosporum ovale (Pityrosporum ovale [2]; 1000 μg/ml in DMSO): −; Fungal Growth Epidermophyton (Epidermophyton; 125 μg/ml in DMSO): ++; Fungal Growth Epidermophyton (Epidermophyton; 250 μg/ml in DMSO): +; Fungal Growth Epidermophyton (Epidermophyton; 500 μg/ml in DMSO): −; Fungal Growth Epidermophyton (Epidermophyton; 1000 μg/ml in DMSO): −
CC1(C)CCC23CCC4(C)C(CCC5C6(C)CCC(OC(=O)CCCC(=O)O)C(C)(C)C6CCC54C)C2C1OC3 (stereo not shown) [Allobetulin 3-glutarate]		25	25	9	+/−	+/−	−	−	+++	+++	++	−	++	+	+	−	
C=C(C)C1CCC2(COC(=O)CCCC(=O)O)CCC3(C)C(CCC4C5(C)CCC(O)C(C)(C)C5CCC43C)C12 (stereo not shown) [betulin 28-glutarate]	inhibited the growth																
C=C(C)C1CCC2(COC(=O)c3ccccc3C(=O)O)CCC3(C)C(CCC4C5(C)CCC(O)C(C)(C)C5CCC43C)C12 (stereo not shown) [Betulin 28-phthalate]			50	25	++	+	−	−	+++	+++	++	−	+++	++	+	−	
C=C(C)[C@@H]1CC[C@]2(CO)CC[C@]3(C)[C@H](CC[C@@H]4[C@@]5(C)CC[C@H](O)C(C)(C)[C@@H]5CC[C@]43C)[C@@H]12 [Betulin]			50	25	++	+	+/−	−	+++	+++	++	+/−	+	+	−	−	solubility in water [3]: about 0.15 mg/l
CC1(C)CC[C@]23CC[C@]4(C)[C@H](CC[C@@H]5[C@@]6(C)CC[C@H](O)C(C)(C)[C@@H]6CC[C@]54C)[C@H]2[C@H]1OC3 [Allobetulin]	inhibited the growth																Fungal Growth Microsporum canis (Microsporum canis; 9 μg/ml in DMSO): +++; Fungal Growth Microsporum canis (Microsporum canis; 19 μg/ml in DMSO): ++; Fungal Growth Microsporum canis (Microsporum canis; 38 μg/ml in DMSO): ++; Fungal Growth Microsporum canis (Microsporum canis; 75 μg/ml in DMSO): −; Fungal Growth Pityrosporum ovale (Pityrosporum ovale [2]; 9 μg/ml in DMSO): +++; Fungal Growth Pityrosporum ovale (Pityrosporum ovale [2]; 19 μg/ml in DMSO): +++; Fungal Growth Pityrosporum ovale (Pityrosporum ovale [2]; 38 μg/ml in DMSO): ++; Fungal Growth Pityrosporum ovale (Pityrosporum ovale [2]; 75 μg/ml in DMSO): −; Fungal Growth Epidermophyton (Epidermophyton; 9 μg/ml in DMSO): ++; Fungal Growth Epidermophyton (Epidermophyton; 19 μg/ml in DMSO): +; Fungal Growth Epidermophyton (Epidermophyton; 38 μg/ml in DMSO): +; Fungal Growth Epidermophyton (Epidermophyton; 75 μg/ml in DMSO): −
